Assays:
CYP82Y1 = CYP82Y1 (Papaver somniferum, UniProt I3PLR1, R101S); conditions: yeast microsomes, 500 μM NADPH, pH 7.5, 30° C.
CYP82X1 = target: T1, CYP82X1 (Papaver somniferum, UniProt I3V6B7); experiment: In vitro enzyme assay with yeast microsomal fractions containing CYP82X1 (CPR/82X1); assay type: biochemical; conditions: yeast microsomes (CPR/82X1), extracted ion chromatograms, FIG. 13
T1 construct: The full-length coding region of CYP82X1 was amplified using cDNA derived from total stem RNA of the Bea's Choice chemotype; FLAG; made in house; host or cells: Saccharomyces cerevisiae YPL 154C:Pep4, microsomal fraction
T1 sequence (I3V6B7 1-540): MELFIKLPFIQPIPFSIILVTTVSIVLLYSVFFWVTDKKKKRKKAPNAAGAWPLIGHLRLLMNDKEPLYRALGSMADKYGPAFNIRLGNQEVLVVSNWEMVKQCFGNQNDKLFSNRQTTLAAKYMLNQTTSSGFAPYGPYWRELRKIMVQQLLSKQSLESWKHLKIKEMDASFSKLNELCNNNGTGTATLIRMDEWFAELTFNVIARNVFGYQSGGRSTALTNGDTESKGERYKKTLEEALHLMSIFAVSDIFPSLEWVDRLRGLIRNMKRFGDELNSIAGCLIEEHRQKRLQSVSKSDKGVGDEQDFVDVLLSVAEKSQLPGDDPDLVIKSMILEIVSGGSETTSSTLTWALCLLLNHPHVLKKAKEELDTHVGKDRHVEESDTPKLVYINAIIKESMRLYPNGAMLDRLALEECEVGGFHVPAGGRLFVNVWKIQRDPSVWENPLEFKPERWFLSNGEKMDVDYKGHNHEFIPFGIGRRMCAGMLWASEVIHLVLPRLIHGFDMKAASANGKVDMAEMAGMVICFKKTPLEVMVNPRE
Excerpt: (§1) The full-length coding region of CYP82X1 was amplified using cDNA derived from total stem RNA of the Bea's Choice chemotype using Takara Ex Taq DNA polymerase (Fisher Scientific, Ottawa, Canada), and using a primer 5′-[…]-3′ (SEQ ID NO: 607) and reverse primer 5′-[…]-3′ (SEQ ID NO: 608). Owing to problems with heterologous expression in yeast, CYP82X2 was synthesized with the first 60 N-terminal amino acids replaced with the first 43 N-terminal amino acids from the lettuce cytochrome P450 germacrene A oxidase Nguyen, D. T. et al. J. Biol. Chem. 285, 16588-16598 (2010). For heterologous expression of Flag-tagged CYPs in yeast (Saccharomyces cerevisiae), the full-length coding regions of CYP82X1 and CYP82X2 were inserted into the NotI and SpeI restriction sites of the dual plasmid pESC-leu2d::CPR Ro, D.-K., Ouellet, M., Paradise, E. M., Burd, H., Eng, D., Paddon, C. J., Newman, J. D., & Keesling, J. D. BMC Biotech. 8, 83 (2008) yielding pESC-Leu2d::CYP82X1/CPR and pESC-Leu2d::CYP82X2/CPR. The protease-deficient yeast strain YPL 154C:Pep4 was transformed with pESC-Leu2d::CYP82X1/CPR and pESC-Leu2d::CYP82X2/CPR. Yeast culture, microsome preparation, and immunoblot analysis were performed as described previously Dang, T.-T. T. & Facchini, P. J. J. Biol. Chem. 289, 2013-2026 (2014). For heterologous expression of CXE1, CXE2, and AT1, corresponding open reading frames were amplified using cDNA derived from total stem RNA of the Bea's Choice chemotype and cloned in-frame an N-terminal His-tag sequence in the Escherichia coli expression vector pRSETA (Invitrogen, Carlsbad, Calif.). CXE1 and CXE2 were individually inserted into the SacI and HindIII restriction sties, whereas AT1 was inserted into the KpnI and HindIII sites, of pRSETA using a primer 5′-[…]-3′ (SEQ ID NO: 609) and reverse primer 5′-[…]-3′ (SEQ ID NO: 610). […] Microsomal fractions containing recombinant CYP82X1 or CYP82X2 were detected using a-FLAG antibodies, whereas recombinant CPR was detected using α-c-Myc antibodies (FIG. 12 A). […]

AT1 = target: T2, AT1 (Papaver somniferum, UniProt I3PLR4); experiment: In vitro AT1 assay with purified recombinant protein; assay type: biochemical; conditions: native recombinant AT1, 50 μM acetyl-CoA, pH 8.0, 30° C., 15 min
T2 construct: corresponding open reading frames were amplified using cDNA derived from total stem RNA of the Bea's Choice chemotype; His-tag (pRSETA leader) (N); made in house; host or cells: Escherichia coli Rosetta (DE3) pLysS
T2 sequence (I3PLR4 1-471): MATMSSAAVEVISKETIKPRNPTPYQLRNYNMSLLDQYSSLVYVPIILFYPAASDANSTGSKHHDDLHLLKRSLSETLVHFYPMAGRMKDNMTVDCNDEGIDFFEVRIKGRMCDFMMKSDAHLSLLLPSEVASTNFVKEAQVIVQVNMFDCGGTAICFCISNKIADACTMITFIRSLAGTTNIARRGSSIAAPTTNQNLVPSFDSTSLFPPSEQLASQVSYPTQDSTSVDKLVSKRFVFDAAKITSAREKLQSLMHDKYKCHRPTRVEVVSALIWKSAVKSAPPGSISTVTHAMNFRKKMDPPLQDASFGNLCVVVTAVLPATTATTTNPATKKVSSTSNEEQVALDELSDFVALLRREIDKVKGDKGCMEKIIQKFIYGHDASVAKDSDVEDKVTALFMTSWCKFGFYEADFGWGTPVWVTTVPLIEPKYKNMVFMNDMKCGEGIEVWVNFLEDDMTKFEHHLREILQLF
Excerpt: (§2) The full-length coding region of CYP82X1 was amplified using cDNA derived from total stem RNA of the Bea's Choice chemotype using Takara Ex Taq DNA polymerase (Fisher Scientific, Ottawa, Canada), and using a primer 5′-[…]-3′ (SEQ ID NO: 607) and reverse primer 5′-[…]-3′ (SEQ ID NO: 608). Owing to problems with heterologous expression in yeast, CYP82X2 was synthesized with the first 60 N-terminal amino acids replaced with the first 43 N-terminal amino acids from the lettuce cytochrome P450 germacrene A oxidase Nguyen, D. T. et al. J. Biol. Chem. 285, 16588-16598 (2010). For heterologous expression of Flag-tagged CYPs in yeast (Saccharomyces cerevisiae), the full-length coding regions of CYP82X1 and CYP82X2 were inserted into the NotI and SpeI restriction sites of the dual plasmid pESC-leu2d::CPR Ro, D.-K., Ouellet, M., Paradise, E. M., Burd, H., Eng, D., Paddon, C. J., Newman, J. D., & Keesling, J. D. BMC Biotech. […] For heterologous expression of CXE1, CXE2, and AT1, corresponding open reading frames were amplified using cDNA derived from total stem RNA of the Bea's Choice chemotype and cloned in-frame an N-terminal His-tag sequence in the Escherichia coli expression vector pRSETA (Invitrogen, Carlsbad, Calif.). […] Microsomal fractions containing recombinant CYP82X1 or CYP82X2 were detected using a-FLAG antibodies, whereas recombinant CPR was detected using α-c-Myc antibodies (FIG. 12 A). […]

CYP82X2 = target: T3, CYP82X2 (UniProt D5J9U8+I3PLR0); experiment: In vitro enzyme assay with yeast microsomal fractions containing CYP82X2 (CPR/82X2); assay type: biochemical, Papaver somniferum; conditions: yeast microsomes (CPR/82X2), extracted ion chromatograms, FIG. 13
T3 construct: the full-length coding regions of CYP82X1 and CYP82X2 were inserted into the NotI and SpeI restriction sites; FLAG; made in house; host or cells: Saccharomyces cerevisiae YPL 154C:Pep4, microsomal fraction
T3 sequence (D5J9U8+I3PLR0 with tags, fused parts or gaps): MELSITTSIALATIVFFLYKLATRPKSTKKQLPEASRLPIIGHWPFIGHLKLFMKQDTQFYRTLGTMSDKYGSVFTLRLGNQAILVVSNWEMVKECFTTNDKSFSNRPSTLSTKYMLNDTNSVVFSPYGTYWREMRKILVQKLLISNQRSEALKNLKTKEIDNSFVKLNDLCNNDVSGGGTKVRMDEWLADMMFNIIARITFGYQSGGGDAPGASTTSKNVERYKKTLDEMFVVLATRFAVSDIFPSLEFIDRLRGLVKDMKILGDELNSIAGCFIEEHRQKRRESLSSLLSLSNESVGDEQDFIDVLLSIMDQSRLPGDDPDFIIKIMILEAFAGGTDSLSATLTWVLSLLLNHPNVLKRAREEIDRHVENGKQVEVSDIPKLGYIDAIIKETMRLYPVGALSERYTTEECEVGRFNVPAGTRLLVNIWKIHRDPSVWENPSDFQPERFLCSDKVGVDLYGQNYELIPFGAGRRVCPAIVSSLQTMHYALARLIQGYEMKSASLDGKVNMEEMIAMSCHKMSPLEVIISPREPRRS
Excerpt: as §1

CXE1 = target: T4, CXE1 (Papaver somniferum, UniProt I3PLR2); experiment: In vitro CXE1 assay with purified recombinant protein; assay type: biochemical; conditions: native recombinant CXE1, pH 8.0, 30° C., 15 min
T4 construct: corresponding open reading frames were amplified using cDNA derived from total stem RNA of the Bea's Choice chemotype; His-tag (pRSETA leader) (N); made in house; host or cells: Escherichia coli Rosetta (DE3) pLysS
T4 sequence (I3PLR2 1-320): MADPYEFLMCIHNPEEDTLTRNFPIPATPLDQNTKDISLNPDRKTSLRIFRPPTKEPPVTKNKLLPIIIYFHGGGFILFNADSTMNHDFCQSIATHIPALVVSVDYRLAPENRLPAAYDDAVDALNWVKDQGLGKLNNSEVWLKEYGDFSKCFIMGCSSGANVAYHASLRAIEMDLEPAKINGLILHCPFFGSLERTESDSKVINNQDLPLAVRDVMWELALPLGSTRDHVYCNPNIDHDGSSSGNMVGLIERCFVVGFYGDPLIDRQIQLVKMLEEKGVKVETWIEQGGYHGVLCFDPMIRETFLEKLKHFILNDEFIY
Excerpt: as §2

CXE2 = target: T5, CXE2 (Papaver somniferum, UniProt A0A0A1EQ07); experiment: In vitro CXE2 assay with purified recombinant protein; assay type: biochemical; conditions: E. coli produced CXE2
T5 construct: corresponding open reading frames were amplified using cDNA derived from total stem RNA of the Bea's Choice chemotype; His-tag (pRSETA leader) (N); made in house; host or cells: Escherichia coli Rosetta (DE3) pLysS
T5 sequence (A0A0A1EQ07 1-313): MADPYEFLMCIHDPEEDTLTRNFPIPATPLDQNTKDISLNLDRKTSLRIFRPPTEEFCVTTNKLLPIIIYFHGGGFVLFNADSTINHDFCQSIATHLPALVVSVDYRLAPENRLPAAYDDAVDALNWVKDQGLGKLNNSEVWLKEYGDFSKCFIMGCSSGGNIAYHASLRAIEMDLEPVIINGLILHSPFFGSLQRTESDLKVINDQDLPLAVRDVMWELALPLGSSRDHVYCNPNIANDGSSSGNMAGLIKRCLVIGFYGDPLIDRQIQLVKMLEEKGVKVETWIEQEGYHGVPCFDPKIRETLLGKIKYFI
Excerpt: as §2

Chain of CYP82Y1 (I3PLR1 whole entry R101S): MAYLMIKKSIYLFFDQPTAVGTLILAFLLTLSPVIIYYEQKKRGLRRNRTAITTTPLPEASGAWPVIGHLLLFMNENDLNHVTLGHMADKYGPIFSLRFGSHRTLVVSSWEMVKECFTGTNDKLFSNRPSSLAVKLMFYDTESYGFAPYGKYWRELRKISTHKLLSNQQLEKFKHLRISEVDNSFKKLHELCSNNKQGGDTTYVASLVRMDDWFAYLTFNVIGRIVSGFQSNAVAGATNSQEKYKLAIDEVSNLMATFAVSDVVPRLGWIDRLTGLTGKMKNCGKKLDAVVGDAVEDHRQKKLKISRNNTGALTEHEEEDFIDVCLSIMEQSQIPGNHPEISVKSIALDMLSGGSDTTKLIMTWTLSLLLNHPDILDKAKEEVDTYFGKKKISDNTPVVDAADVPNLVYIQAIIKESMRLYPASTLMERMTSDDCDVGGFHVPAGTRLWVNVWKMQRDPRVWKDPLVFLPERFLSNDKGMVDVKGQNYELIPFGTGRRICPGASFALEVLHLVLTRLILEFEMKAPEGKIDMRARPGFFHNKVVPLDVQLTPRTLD

SMILES	conversion as substrate by CYP82Y1 (CYP82Y1)	conversion as substrate by CYP82X1 (CYP82X1)	conversion as substrate by CYP82X2 (CYP82X2)	also measured
COc1ccc2c(c1OC)C[N+]1(C)CCc3cc4c(cc3C1C2)OCO4 [(S)—N-methylcanadine]	yielding 1-hydroxy-N-methylcanadine	–	–	–
COc1ccc2c(c1OC)C[N+]1(C)CCc3cc4c(c(O)c3C1C2O)OCO4 [(S)-1,13-dihydroxy-N-methylcanadine]	–	No products were detected	No products were detected	conversion as substrate by AT1 (AT1): forming (S)-1-hydroxy-13-O-acetyl-N-methylcanadine
COc1ccc2c(c1OC)C[N+]1(C)CCc3cc4c(c(O)c3C1C2OC(C)=O)OCO4 [(S)-1-hydroxy-13-O-acetyl-N-methylcanadine]	–	converting (S)-1-hydroxy-13-O-acetyl-N-methylcanadine (m/z 428) to (S)-1,8-dihydroxy-13-O-acetyl-N-methylcanadine	showed no activity	–
COc1ccc2c(c1OC)C[N+]1(C)CCc3cc4c(c(O)c3C1C2)OCO4 [(S)-1-hydroxy-N-methylcanadine]	–	4-O-demethylmacrantaldehyde	yielding (S)-1,13-dihydroxy-N-methylcanadine	–
COc1ccc(C(OC(C)=O)C2c3c(cc4c(c3OC)OCO4)CCN2C)c(C=O)c1OC (centres unmarked) [3-O-acetylpapaveroxine]	–	–	–	conversion as substrate by CXE1 (CXE1): yielding papaveroxine; conversion as substrate by CXE2 (CXE2): form narcotine hemiacetal
C[N@@+]12CCc3cc4c(cc3[C@@H]1Cc1ccc3c(c1C2)OCO3)OCO4 [N-methylstylopine, reference compound]	give rise to 1-hydroxy-N-methylstylopine	–	–	–

Reference: US10793885B2, “Compositions and methods for making noscapine and synthesis intermediates thereof” (priority 2013, dated 2020)
